Patent US6365582B1, “S-substitute 11β-benzaldoxime-estra-4, 9-diene-carbonic acid thiolesters, method for the production thereof and pharmaceutical preparations containing these compounds” (Jenapharm GmbH & Co. KG, priority 1998, dated 2002)

Experiments:
[1] = target: T1, progesterone receptor (Oryctolagus cuniculus, UniProt P06186); experiment: Receptor binding affinity, progesterone receptor (competitive binding, uterus cytosol); settings: Progesterone = 100%; uterus cytosol of estradiol-primed rabbit; tracer 3H-ORG 2058
T1 construct: receptors in the cytosol of animal target organs; from tissue; host or cells: uterus cytosol of the estradiol-primed rabbit
T1 sequence (P06186 1-930): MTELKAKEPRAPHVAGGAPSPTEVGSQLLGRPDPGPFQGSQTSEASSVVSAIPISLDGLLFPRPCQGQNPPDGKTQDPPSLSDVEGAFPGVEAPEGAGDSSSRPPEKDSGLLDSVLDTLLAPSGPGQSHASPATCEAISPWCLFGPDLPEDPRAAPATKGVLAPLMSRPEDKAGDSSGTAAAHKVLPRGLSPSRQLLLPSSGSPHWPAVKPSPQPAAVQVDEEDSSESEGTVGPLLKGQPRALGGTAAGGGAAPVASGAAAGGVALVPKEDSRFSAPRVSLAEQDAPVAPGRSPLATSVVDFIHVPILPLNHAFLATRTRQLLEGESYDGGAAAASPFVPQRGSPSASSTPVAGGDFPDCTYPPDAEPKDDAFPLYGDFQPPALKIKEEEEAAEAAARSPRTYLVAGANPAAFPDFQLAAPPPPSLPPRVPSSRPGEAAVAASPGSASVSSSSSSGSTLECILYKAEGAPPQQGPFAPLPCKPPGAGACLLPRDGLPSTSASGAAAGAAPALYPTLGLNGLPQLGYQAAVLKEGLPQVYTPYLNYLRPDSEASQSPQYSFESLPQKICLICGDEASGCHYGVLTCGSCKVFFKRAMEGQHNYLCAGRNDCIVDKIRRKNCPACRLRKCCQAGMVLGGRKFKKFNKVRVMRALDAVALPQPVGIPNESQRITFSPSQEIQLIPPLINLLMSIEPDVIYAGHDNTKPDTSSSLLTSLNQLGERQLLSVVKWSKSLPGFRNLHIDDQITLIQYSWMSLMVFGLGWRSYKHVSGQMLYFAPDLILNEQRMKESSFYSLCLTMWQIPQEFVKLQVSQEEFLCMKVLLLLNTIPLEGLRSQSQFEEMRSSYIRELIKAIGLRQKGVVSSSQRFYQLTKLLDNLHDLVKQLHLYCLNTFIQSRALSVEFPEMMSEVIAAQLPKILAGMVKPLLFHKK
Protocol: (§1) Measurement of the receptor binding affinity
(§2) The receptor binding affinity was determined by competitive binding of a specifically binding ^3H-labeled hormone (tracer) and the compound to be tested to receptors in the cytosol of animal target organs. Receptor saturation and reaction equilibrium were aimed at here. The following incubation conditions were chosen:
Progesterone receptor Uterus cytosol of the estradiol-primed rabbit, stored at −30° C.
Buffer for homogenization and incubation: TED buffer 20 mM tris/HCl, pH [sic]=7.4; 1 mM ethylenediamine tetracetate, 2 mM dithiothreitol) containing 250 mM sucrose.
Reference substance: progesterone.
(§3) After an incubation of receptor fraction, tracer and competitor for 18 h at 0-4° C., the bound and free steroid were separated by mixing in active carbon/dextran (1%/0.1%), centrifuging off and measuring the receptor-bound ^3H activity in the supernatant.

[2] = target: T2, glucocorticoid receptor (Rattus norvegicus, UniProt P06536); experiment: Receptor binding affinity, glucocorticoid receptor (competitive binding, thymus cytosol); settings: Dexamethasone = 100%; thymus cytosol of adrenalectomized rat; tracer 3H-dexamethasone
T2 construct: receptors in the cytosol of animal target organs; from tissue; host or cells: thymus cytosol of the adrenalectomized rat
T2 sequence (P06536 1-795): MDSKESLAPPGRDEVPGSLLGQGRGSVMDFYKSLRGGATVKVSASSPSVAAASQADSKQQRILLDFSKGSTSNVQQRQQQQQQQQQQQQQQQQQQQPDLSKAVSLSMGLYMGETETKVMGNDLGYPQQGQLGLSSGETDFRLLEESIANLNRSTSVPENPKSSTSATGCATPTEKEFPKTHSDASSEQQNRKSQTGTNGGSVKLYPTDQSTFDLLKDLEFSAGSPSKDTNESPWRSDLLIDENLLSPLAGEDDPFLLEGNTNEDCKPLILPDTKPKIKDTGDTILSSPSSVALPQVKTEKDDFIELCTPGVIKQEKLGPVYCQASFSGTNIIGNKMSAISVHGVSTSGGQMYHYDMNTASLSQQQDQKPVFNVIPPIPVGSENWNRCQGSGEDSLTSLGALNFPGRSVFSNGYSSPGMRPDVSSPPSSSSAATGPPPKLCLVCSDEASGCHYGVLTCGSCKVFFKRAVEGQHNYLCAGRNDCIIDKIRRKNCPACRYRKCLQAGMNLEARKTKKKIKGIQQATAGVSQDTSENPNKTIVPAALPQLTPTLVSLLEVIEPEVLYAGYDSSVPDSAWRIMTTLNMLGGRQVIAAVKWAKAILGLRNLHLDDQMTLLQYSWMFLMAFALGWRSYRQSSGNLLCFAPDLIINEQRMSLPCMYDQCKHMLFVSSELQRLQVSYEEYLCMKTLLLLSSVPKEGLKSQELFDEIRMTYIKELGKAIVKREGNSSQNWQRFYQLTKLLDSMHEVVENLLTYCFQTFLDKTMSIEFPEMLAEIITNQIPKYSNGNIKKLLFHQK
Protocol: as §1, §2
Glucocorticoid receptor: Thymus cytosol of the adrenalectomized rat. Thymi stored at −30° C.
Tracer: ^3H-dexamethasone, 20 nM.
Reference substance: dexamethasone.
as §3

[3] = system: guinea pig in cycle; experiment: Antiluteolysis test/ovulation inhibition test in the guinea pig in cycle; assay type: in vivo
Protocol: Antiluteolysis test/ovulation inhibition test in the guinea pig in cycle: This test is based on the fact that progesterone at the end of the cycle stimulates uterine prostaglandin secretion. In the guinea pig, the inhibition of this function leads to a persistence of the corpora lutea (antiluteolysis). […] This test thus allows the therapy-relevant typing of progesterone antagonists as ? pure” or ? agonistic” substances. Guinea pigs are treated with the test substance on day 10 to day 17 of the cycle. The progesterone concentrations in the serum are determined on day 10 before substance treatment and on the following days until autopsy ([…]., Beier, […]., Crundel, M. et al. in Current Concepts in Fertility Regulation and Reproduction, (eds). Puri, C. P. and Van Look, P. F. H. (1994) 303-328).

[4] = system: early pregnancy in the rat; experiment: Inhibition of early pregnancy in the rat (early abortive action); assay type: in vivo; settings: s.c., day 5-7 of pregnancy
Protocol: Inhibition of early pregnancy in the rat Female rats weighing 180-200 g were mated in the proestrus stage. On detection of sperm in the vaginal region on the next day, this is set as day 1 (d=1) of the pregnancy. The rats are treated with test substance or vehicle using 0.2 ml of benzoyl benzoate/castor oil (1+4 v/v) subcutaneously from day 5 to day 7 (d5-d7); autopsy is carried oust painlessly on day d9. The uterus horns was [sic] dissected and examined for intact or damaged nidation sites.

For `CN(C)c1ccc([C@H]2C[C@]3(C)[C@@H](CC[C@]3(O)CCCO)[C@@H]3CCC4=CC(=O)CCC4=C32)cc1` [ZK 98299, onapristone, reference compound], the “Relative molar binding affinity RBA (%) to the progesterone receptor” value [1] was 22%, the “Relative molar binding affinity RBA (%) to the glucocorticoid receptor” value [2] was 39% and the “Prostaglandin / PGFM levels in the blood (in words)” value ([3]; guinea pig) was “very low prostaglandin levels in the blood”. For the same compound, the “Effect on the vaginal epithelium (in words)” value ([3]; guinea pig in cycle) was “induces proliferation and keratinization of the vaginal epithelium”.

In the case of `CC#C[C@]1(O)CC[C@H]2[C@@H]3CCC4=CC(=O)CCC4=C3[C@@H](c3ccc(N(C)C)cc3)C[C@@]21C` [RU 486, mifepristone, reference compound], the “Relative molar binding affinity RBA (%) to the glucocorticoid receptor” value [2] was 685%, the “Complete inhibition of pregnancy %” value ([4]; 0.3 mg/(animal × day)) was 0% and the “Complete inhibition of pregnancy %” value ([4]; 1 mg/(animal × day)) was 20%. For the same compound, the “Complete inhibition of pregnancy %” value ([4]; 3 mg/(animal × day)) was 100% and the “Inhibition of luteolysis / antiluteolytic activity (in words)” value ([3]; guinea pig in cycle) was “slightly antiluteolytically active”.
